Assay results: patent US6770596B1, “Fused tricyclic compounds, process for their preparation, and herbicidal compositions containing them” (Ishihara Sangyo Kaisha Ltd., priority 2002, dated 2004)

What was measured:
Format in all cases: in vivo
[1] = test system: redroot pigweed (Amaranthus retroflexus, AMR); test: Pre-emerge test, redroot pigweed; conditions: 250 g ai/ha, 14 days after application, rating scale 0-100 (0 no damage, 100 complete death)
Source text: (§1) A standard greenhouse herbicide activity screening system was used to evaluate the herbicidal efficacy and crop safety of these test compounds. Seven broadleaf weed species including redroot pigweed (Amaranthus retroflexus, AMR), velvetleaf (Abutilon theophrasti, ABT), sicklepod (Cassia obtusifolia, CAO), ivyleaf morningglory (Ipomoea hederacea, IPH), lambsquarters (Chenopodium album, CHA), common ragweed (Ambrosia artemisiifolia L., AML), and cocklebur (Xanthium strumariunt, XAS) were used as test species. Four grass weed species including green foxtail (Setaria viridis, SEV), barnyardgrass (Echinachloa crus-galli, ECC), johnsongrass (Sorghum halepense, SOH), and large crabgrass (Digitaria sanguinalis, DIS) were also used. In addition, four crop species, field corn (Zea mays L., var. Dekalb 535, CORN), soybean (Glycine max L., var. Pella 86, SOY), upland rice (Oryza sp., var.Tebonnet, RICE), and wheat (Triticum aestivum) were included all plants were grown in 10 cm square plastic pots which were filled with a sandy loam soil mix.
(§2) For pre-emerge tests, seeds were planted one day prior to application of the test compounds. All test compounds were dissolved in acetone and applied to the test pots in a volume of 187 l/ha. Test materials were applied at rates ranging from 8 g ai/ha to 1000 g ai/ha using a track sprayer equipped with a TJ8001E even flow flat fan spray nozzle. This application simulates a typical commercial field herbicide application.
(§3) At 14 days after application of the test materials, phytotoxicity ratings were recorded. A rating scale of 0-100 was used for both pre and post emerge tests as previously described in Research Methods in Weed Science, 2nd edition, B, Truelove, Ed., Southern Weed Science Society, Auburn University, Auburn, Ala., 1977. Briefly, “0” corresponds to no damage and “100” corresponds to complete death of all plants in the test unit. This scale was used both to determine efficacy against weed species and damage to crop species. Herbicide activity data for various compounds of this invention, which are shown by compound No. in Tables 1-3, are shown in Tables 5 and 6.

[2] = test system: velvetleaf (Abutilon theophrasti, ABT); test: Pre-emerge test, velvetleaf; conditions: 250 g ai/ha, 14 days after application, rating scale 0-100 (0 no damage, 100 complete death)
Source text: as §1, §2, §3

[3] = test system: sicklepod (Cassia obtusifolia, CAO); test: Pre-emerge test, sicklepod; conditions: 250 g ai/ha, 14 days after application, rating scale 0-100 (0 no damage, 100 complete death)
Source text: as §1, §2, §3

[4] = test system: ivyleaf morningglory (Ipomoea hederacea, IPH); test: Pre-emerge test, ivyleaf morningglory; conditions: 250 g ai/ha, 14 days after application, rating scale 0-100 (0 no damage, 100 complete death)
Source text: as §1, §2, §3

[5] = test system: lambsquarters (Chenopodium album, CHA); test: Pre-emerge test, lambsquarters; conditions: 250 g ai/ha, 14 days after application, rating scale 0-100 (0 no damage, 100 complete death)
Source text: as §1, §2, §3

[6] = test system: common ragweed (Ambrosia artemisiifolia L., AML); test: Pre-emerge test, common ragweed; conditions: 250 g ai/ha, 14 days after application, rating scale 0-100 (0 no damage, 100 complete death)
Source text: as §1, §2, §3

[7] = test system: cocklebur (Xanthium strumariunt, XAS); test: Pre-emerge test, cocklebur; conditions: 250 g ai/ha, 14 days after application, rating scale 0-100 (0 no damage, 100 complete death)
Source text: as §1, §2, §3

[8] = test system: green foxtail (Setaria viridis, SEV); test: Pre-emerge test, green foxtail; conditions: 250 g ai/ha, 14 days after application, rating scale 0-100 (0 no damage, 100 complete death)
Source text: as §1, §2, §3

[9] = test system: barnyardgrass (Echinachloa crus-galli, ECC); test: Pre-emerge test, barnyardgrass; conditions: 250 g ai/ha, 14 days after application, rating scale 0-100 (0 no damage, 100 complete death)
Source text: as §1, §2, §3

[10] = test system: johnsongrass (Sorghum halepense, SOH); test: Pre-emerge test, johnsongrass; conditions: 250 g ai/ha, 14 days after application, rating scale 0-100 (0 no damage, 100 complete death)
Source text: as §1, §2, §3

[11] = test system: large crabgrass (Digitaria sanguinalis, DIS); test: Pre-emerge test, large crabgrass; conditions: 250 g ai/ha, 14 days after application, rating scale 0-100 (0 no damage, 100 complete death)
Source text: as §1, §2, §3

[12] = test system: field corn (Zea mays L., var. Dekalb 535, CORN); test: Pre-emerge test, crop damage field corn; conditions: pre-emerge, 250 g ai/ha, 14 days after application, rating scale 0-100 (0 no damage, 100 complete death)
Source text: as §1, §2, §3

[13] = test system: soybean (Glycine max L., var. Pella 86, SOY); test: Pre-emerge test, crop damage soybean; conditions: pre-emerge, 250 g ai/ha, 14 days after application, rating scale 0-100 (0 no damage, 100 complete death)
Source text: as §1, §2, §3

[14] = test system: upland rice (Oryza sp., var.Tebonnet, RICE); test: Pre-emerge test, crop damage upland rice; conditions: pre-emerge, 250 g ai/ha, 14 days after application, rating scale 0-100 (0 no damage, 100 complete death)
Source text: as §1, §2, §3

[15] = test system: wheat (Triticum aestivum); test: Pre-emerge test, crop damage wheat; conditions: pre-emerge, 250 g ai/ha, 14 days after application, rating scale 0-100 (0 no damage, 100 complete death)
Source text: as §1, §2, §3

[16] = test system: redroot pigweed (Amaranthus retroflexus, AMR); test: Post-emerge test, redroot pigweed; conditions: 250 g ai/ha, 14 days after application, rating scale 0-100 (0 no damage, 100 complete death)
Source text: as §1, §2
(§4) For post-emerge tests, seeds were planted 8-21 days prior to the test to allow emergence and good foliage development prior to application of the test substances. At the time of the post-emerge application, plants of all species were usually at the 2-3 leaf stage of development. In the postemerge test, a commercial non-ionic surfactant was also included (0.25% v/v) to enhance wetting of the leaf surfaces of target plants.
as §3

[17] = test system: velvetleaf (Abutilon theophrasti, ABT); test: Post-emerge test, velvetleaf; conditions: 250 g ai/ha, 14 days after application, rating scale 0-100 (0 no damage, 100 complete death)
Source text: as §1, §2, §4, §3

[18] = test system: sicklepod (Cassia obtusifolia, CAO); test: Post-emerge test, sicklepod; conditions: 250 g ai/ha, 14 days after application, rating scale 0-100 (0 no damage, 100 complete death)
Source text: as §1, §2, §4, §3

[19] = test system: ivyleaf morningglory (Ipomoea hederacea, IPH); test: Post-emerge test, ivyleaf morningglory; conditions: 250 g ai/ha, 14 days after application, rating scale 0-100 (0 no damage, 100 complete death)
Source text: as §1, §2, §4, §3

[20] = test system: lambsquarters (Chenopodium album, CHA); test: Post-emerge test, lambsquarters; conditions: 250 g ai/ha, 14 days after application, rating scale 0-100 (0 no damage, 100 complete death)
Source text: as §1, §2, §4, §3

[21] = test system: common ragweed (Ambrosia artemisiifolia L., AML); test: Post-emerge test, common ragweed; conditions: 250 g ai/ha, 14 days after application, rating scale 0-100 (0 no damage, 100 complete death)
Source text: as §1, §2, §4, §3

[22] = test system: cocklebur (Xanthium strumariunt, XAS); test: Post-emerge test, cocklebur; conditions: 250 g ai/ha, 14 days after application, rating scale 0-100 (0 no damage, 100 complete death)
Source text: as §1, §2, §4, §3

[23] = test system: green foxtail (Setaria viridis, SEV); test: Post-emerge test, green foxtail; conditions: 250 g ai/ha, 14 days after application, rating scale 0-100 (0 no damage, 100 complete death)
Source text: as §1, §2, §4, §3

[24] = test system: barnyardgrass (Echinachloa crus-galli, ECC); test: Post-emerge test, barnyardgrass; conditions: 250 g ai/ha, 14 days after application, rating scale 0-100 (0 no damage, 100 complete death)
Source text: as §1, §2, §4, §3

[25] = test system: johnsongrass (Sorghum halepense, SOH); test: Post-emerge test, johnsongrass; conditions: 250 g ai/ha, 14 days after application, rating scale 0-100 (0 no damage, 100 complete death)
Source text: as §1, §2, §4, §3

[26] = test system: large crabgrass (Digitaria sanguinalis, DIS); test: Post-emerge test, large crabgrass; conditions: 250 g ai/ha, 14 days after application, rating scale 0-100 (0 no damage, 100 complete death)
Source text: as §1, §2, §4, §3

[27] = test system: field corn (Zea mays L., var. Dekalb 535, CORN); test: Post-emerge test, crop damage field corn; conditions: post-emerge, 250 g ai/ha, 14 days after application, rating scale 0-100 (0 no damage, 100 complete death)
Source text: as §1, §2, §4, §3

[28] = test system: soybean (Glycine max L., var. Pella 86, SOY); test: Post-emerge test, crop damage soybean; conditions: post-emerge, 250 g ai/ha, 14 days after application, rating scale 0-100 (0 no damage, 100 complete death)
Source text: as §1, §2, §4, §3

[29] = test system: upland rice (Oryza sp., var.Tebonnet, RICE); test: Post-emerge test, crop damage upland rice; conditions: post-emerge, 250 g ai/ha, 14 days after application, rating scale 0-100 (0 no damage, 100 complete death)
Source text: as §1, §2, §4, §3

[30] = test system: wheat (Triticum aestivum); test: Post-emerge test, crop damage wheat; conditions: post-emerge, 250 g ai/ha, 14 days after application, rating scale 0-100 (0 no damage, 100 complete death)
Source text: as §1, §2, §4, §3

| SMILES | Pre-emerge Herbicidal Activity AMR (phytotoxicity rating) [1] | Pre-emerge Herbicidal Activity ABT (phytotoxicity rating) [2] | Pre-emerge Herbicidal Activity CAO (phytotoxicity rating) [3] | Pre-emerge Herbicidal Activity IPH (phytotoxicity rating) [4] | Pre-emerge Herbicidal Activity CHA (phytotoxicity rating) [5] | Pre-emerge Herbicidal Activity AML (phytotoxicity rating) [6] | Pre-emerge Herbicidal Activity XAS (phytotoxicity rating) [7] | Pre-emerge Herbicidal Activity SEV (phytotoxicity rating) [8] | Pre-emerge Herbicidal Activity ECC (phytotoxicity rating) [9] | Pre-emerge Herbicidal Activity SOH (phytotoxicity rating) [10] | Pre-emerge Herbicidal Activity DIS (phytotoxicity rating) [11] | Pre-emerge crop damage CORN (phytotoxicity rating) [12] | Pre-emerge crop damage SOY (phytotoxicity rating) [13] | Pre-emerge crop damage RICE (phytotoxicity rating) [14] | Pre-emerge crop damage WHEAT (phytotoxicity rating) [15] | Post-emerge Herbicidal Activity AMR (phytotoxicity rating) [16] | Post-emerge Herbicidal Activity ABT (phytotoxicity rating) [17] | Post-emerge Herbicidal Activity CAO (phytotoxicity rating) [18] | Post-emerge Herbicidal Activity IPH (phytotoxicity rating) [19] | Post-emerge Herbicidal Activity CHA (phytotoxicity rating) [20] | also measured |
| --- | --- | --- | --- | --- | --- | --- | --- | --- | --- | --- | --- | --- | --- | --- | --- | --- | --- | --- | --- | --- | --- |
| Cn1nc(-c2c(F)cc3c4c2NC(=O)C(C)(C)N4C(=O)CO3)c(Cl)c1OC(F)F [1-27] | 100 | 100 | 100 | 100 | 100 | 100 | 80 | 100 | 100 | 100 | 100 | 55 | 35 | 85 | 80 | 100 | 100 | 100 | 100 | 100 | Post-emerge Herbicidal Activity AML (phytotoxicity rating) [21]: 98; Post-emerge Herbicidal Activity XAS (phytotoxicity rating) [22]: 100; Post-emerge Herbicidal Activity SEV (phytotoxicity rating) [23]: 100; Post-emerge Herbicidal Activity ECC (phytotoxicity rating) [24]: 100; Post-emerge Herbicidal Activity SOH (phytotoxicity rating) [25]: 75; Post-emerge Herbicidal Activity DIS (phytotoxicity rating) [26]: 60; Post-emerge crop damage CORN (phytotoxicity rating) [27]: 60; Post-emerge crop damage SOY (phytotoxicity rating) [28]: 100; Post-emerge crop damage RICE (phytotoxicity rating) [29]: 90; Post-emerge crop damage WHEAT (phytotoxicity rating) [30]: 75 |
| CC1Oc2cc(F)c(-c3nn(C)c(C(F)(F)F)c3Cl)c3c2N(C1=O)C(C(C)C)C(=O)N3 (mixture of isomers) [1-53] | 100 | 100 | 100 | 95 | 100 | 95 | 100 | 99 | 95 | 90 | 98 | 25 | 50 | 5 | 15 | 100 | 100 | 50 | 100 | 100 | Post-emerge Herbicidal Activity AML (phytotoxicity rating) [21]: 75; Post-emerge Herbicidal Activity XAS (phytotoxicity rating) [22]: 100; Post-emerge Herbicidal Activity SEV (phytotoxicity rating) [23]: 60; Post-emerge Herbicidal Activity ECC (phytotoxicity rating) [24]: 70; Post-emerge Herbicidal Activity SOH (phytotoxicity rating) [25]: 0; Post-emerge Herbicidal Activity DIS (phytotoxicity rating) [26]: 0; Post-emerge crop damage CORN (phytotoxicity rating) [27]: 5; Post-emerge crop damage SOY (phytotoxicity rating) [28]: 20; Post-emerge crop damage RICE (phytotoxicity rating) [29]: 0; Post-emerge crop damage WHEAT (phytotoxicity rating) [30]: 10 |
